These results are taken from ChEMBL document CHEMBL1641363, “Fragment-based discovery of 6-substituted isoquinolin-1-amine based ROCK-I inhibitors” (Bioorg Med Chem Lett, 2011).

Broadly, the IC50 is the midpoint of a concentration-inhibition curve. One may read the bioavailability as dose-corrected exposure relative to a reference, in per cent. The clearance is a measure of how efficiently the substance is removed, as volume per time. By Ki is commonly meant a dissociation constant, usually derived from enzyme kinetics or from competition with a known ligand. Broadly, the half-life is how long it takes for the measured level to halve. For orientation: pKa means the pH at which an ionisable group is half protonated.

The target in data set [1] is T1, Rho-associated protein kinase 1 (Homo sapiens, UniProt Q13464). Description: Displacement of Y-27632 from ROCK-1 assessed as drop in intensity of binding signals by NMR competition experiment. Also noted: concentration or dose not given beside the values.
Target sequence in this assay (Q13464 2-1354 limits assumed): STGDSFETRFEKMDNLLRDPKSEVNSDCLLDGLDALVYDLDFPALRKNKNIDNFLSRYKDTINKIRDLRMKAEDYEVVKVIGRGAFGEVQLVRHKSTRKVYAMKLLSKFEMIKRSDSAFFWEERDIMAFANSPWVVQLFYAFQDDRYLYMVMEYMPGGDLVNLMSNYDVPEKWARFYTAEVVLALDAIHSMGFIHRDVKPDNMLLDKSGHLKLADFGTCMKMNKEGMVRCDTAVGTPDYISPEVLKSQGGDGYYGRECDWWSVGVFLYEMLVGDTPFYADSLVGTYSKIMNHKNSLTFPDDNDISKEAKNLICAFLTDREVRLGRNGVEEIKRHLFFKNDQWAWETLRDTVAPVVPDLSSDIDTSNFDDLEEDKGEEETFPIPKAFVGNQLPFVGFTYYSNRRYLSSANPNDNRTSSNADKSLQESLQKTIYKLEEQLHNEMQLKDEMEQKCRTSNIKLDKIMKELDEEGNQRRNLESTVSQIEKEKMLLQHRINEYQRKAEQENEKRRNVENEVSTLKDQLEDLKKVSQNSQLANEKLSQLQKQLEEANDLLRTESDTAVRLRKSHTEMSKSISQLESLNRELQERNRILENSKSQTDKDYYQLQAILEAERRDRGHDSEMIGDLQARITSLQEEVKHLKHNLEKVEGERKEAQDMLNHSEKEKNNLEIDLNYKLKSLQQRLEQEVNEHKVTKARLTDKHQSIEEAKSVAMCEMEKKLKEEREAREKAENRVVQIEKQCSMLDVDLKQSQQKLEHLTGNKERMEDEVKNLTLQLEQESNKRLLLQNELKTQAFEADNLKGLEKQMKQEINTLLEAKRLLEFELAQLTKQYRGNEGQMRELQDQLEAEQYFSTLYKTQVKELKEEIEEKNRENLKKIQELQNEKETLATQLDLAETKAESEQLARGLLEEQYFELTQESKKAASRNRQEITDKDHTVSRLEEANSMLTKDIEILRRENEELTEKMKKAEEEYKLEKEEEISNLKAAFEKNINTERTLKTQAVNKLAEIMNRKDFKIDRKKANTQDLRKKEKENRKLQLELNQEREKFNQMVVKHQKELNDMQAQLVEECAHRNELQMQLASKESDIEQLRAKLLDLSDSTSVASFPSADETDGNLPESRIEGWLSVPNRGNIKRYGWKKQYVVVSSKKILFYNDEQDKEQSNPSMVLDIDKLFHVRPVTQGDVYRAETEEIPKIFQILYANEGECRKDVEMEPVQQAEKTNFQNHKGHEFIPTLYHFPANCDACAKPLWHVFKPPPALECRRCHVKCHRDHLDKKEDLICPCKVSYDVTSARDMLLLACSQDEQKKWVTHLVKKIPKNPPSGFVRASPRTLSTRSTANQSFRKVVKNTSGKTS
Data set [2] concerns the target T1, Rho-associated protein kinase 1. The data set is described as follows: Inhibition of ROCK-1 by Immobilized metal ion affinity-based fluorescence polarization assay. Background: Polarisation of emitted light reports the rotation of a fluorescent probe.
Target sequence in this assay (Q13464 whole entry): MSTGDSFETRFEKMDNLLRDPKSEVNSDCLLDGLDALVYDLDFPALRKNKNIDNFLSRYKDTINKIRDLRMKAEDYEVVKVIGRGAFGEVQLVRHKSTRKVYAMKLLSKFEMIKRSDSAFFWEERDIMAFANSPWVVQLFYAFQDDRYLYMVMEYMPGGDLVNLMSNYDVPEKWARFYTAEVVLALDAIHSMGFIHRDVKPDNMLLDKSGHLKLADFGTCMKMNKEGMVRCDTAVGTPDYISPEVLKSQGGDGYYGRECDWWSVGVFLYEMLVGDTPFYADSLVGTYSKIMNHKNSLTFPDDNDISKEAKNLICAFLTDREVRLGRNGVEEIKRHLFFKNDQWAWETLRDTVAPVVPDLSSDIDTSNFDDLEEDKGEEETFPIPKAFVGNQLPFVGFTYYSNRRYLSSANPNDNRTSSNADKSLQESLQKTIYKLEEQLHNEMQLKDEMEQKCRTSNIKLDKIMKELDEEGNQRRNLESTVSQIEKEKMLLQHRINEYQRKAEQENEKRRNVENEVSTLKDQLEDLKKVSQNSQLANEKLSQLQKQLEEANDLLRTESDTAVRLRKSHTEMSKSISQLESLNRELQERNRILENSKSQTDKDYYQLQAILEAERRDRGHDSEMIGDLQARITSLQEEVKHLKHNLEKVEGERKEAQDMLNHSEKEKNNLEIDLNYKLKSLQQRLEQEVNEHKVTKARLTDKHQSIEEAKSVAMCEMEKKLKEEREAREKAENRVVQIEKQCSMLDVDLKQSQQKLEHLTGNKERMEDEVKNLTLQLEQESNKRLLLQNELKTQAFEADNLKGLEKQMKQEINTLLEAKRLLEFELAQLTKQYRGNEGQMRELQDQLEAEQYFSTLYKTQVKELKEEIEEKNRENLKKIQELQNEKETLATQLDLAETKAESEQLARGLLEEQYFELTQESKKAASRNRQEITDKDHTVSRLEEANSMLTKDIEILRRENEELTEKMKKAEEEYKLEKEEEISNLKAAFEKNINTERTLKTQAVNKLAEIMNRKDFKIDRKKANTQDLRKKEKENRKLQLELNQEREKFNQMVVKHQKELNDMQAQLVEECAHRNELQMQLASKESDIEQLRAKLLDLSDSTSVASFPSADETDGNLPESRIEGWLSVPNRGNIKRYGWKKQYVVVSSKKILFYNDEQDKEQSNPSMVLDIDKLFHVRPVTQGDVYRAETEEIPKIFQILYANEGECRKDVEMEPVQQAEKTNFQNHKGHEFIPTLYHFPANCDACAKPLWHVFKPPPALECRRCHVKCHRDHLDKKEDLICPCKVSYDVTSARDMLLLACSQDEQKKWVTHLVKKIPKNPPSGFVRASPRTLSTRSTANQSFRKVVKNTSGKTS
A short description of data set [3]: Volume of distribution at steady state in C57 mouse. It counts as ADME, organism-based. The following applies: in vivo, read-out: Vdss.
Data set [4] in a line: Oral bioavailability in C57 mouse. It counts as ADME, organism-based. The settings on record: in vivo.
Data set [5] is described as follows: Plasma clearance in C57 mouse. The data set is classed as ADME, organism-based.
Data set [6] has as its target Voltage-gated inwardly rectifying potassium channel KCNH2 (Homo sapiens, UniProt Q12809). The data set is described as follows: Displacement of [3H]dofetilide from human ERG. In general terms: In a radioligand displacement assay an active substance lowers the binding of a labelled ligand.
Data set [7] in a line: Half life in C57 mouse. The data set is classed as ADME, organism-based. The following applies: in vivo.
The nature of data set [8]: Dissociation constant, pKa of the compound. The data set is classed as physicochemical.
A short description of data set [9]: Permeability from apical to basolateral side of human Caco2 cells. The settings on record: Caco-2, read-out: permeability. The data set is classed as ADME, cell-based.
A short description of data set [10]: Oral bioavailability in Wistar rat. The data set is classed as ADME, organism-based. The following applies: in vivo.
Data set [11] in a line: Half life in mouse liver microsome. The data set is classed as ADME. The settings on record: liver microsomes.
Data set [12] is described as follows: Plasma clearance in Wistar rat. It counts as ADME, organism-based.
Data set [13] is described as follows: Half life in rat hepatocyte. It counts as ADME, cell-based, Liver. The settings on record: hepatocytes.
The nature of data set [14]: Half life in Wistar rat. It counts as ADME, organism-based. The following applies: in vivo.
Data set [15] is described as follows: Half life in human liver microsome. It counts as ADME. The settings on record: liver microsomes. (In general: Microsomes from liver hold many membrane-bound enzymes, among them those of drug oxidation.)
Data set [16] can be described thus: Volume of distribution at steady state in Wistar rat. The following applies: in vivo, read-out: Vdss. It counts as ADME, organism-based.
The nature of data set [17]: Half life in rat liver microsome. It counts as ADME. The following applies: liver microsomes.
The nature of data set [18]: Permeability from basolateral to apical side of human Caco2 cells. The data set is classed as ADME, cell-based. The following applies: Caco-2, read-out: permeability.
In data set [19] the target is Rho-associated protein kinase 2 (Homo sapiens, UniProt O75116). Description: Inhibition of ROCK-2 by Immobilized metal ion affinity-based fluorescence polarization assay.
The target of data set [20] is T1, Rho-associated protein kinase 1. The data set is described as follows: Inhibition of ROCK-1.
Target sequence in this assay (Q13464 whole entry): as above

The structures appear in SMILES notation.

Sequence of Voltage-gated inwardly rectifying potassium channel KCNH2 (Q12809 whole entry): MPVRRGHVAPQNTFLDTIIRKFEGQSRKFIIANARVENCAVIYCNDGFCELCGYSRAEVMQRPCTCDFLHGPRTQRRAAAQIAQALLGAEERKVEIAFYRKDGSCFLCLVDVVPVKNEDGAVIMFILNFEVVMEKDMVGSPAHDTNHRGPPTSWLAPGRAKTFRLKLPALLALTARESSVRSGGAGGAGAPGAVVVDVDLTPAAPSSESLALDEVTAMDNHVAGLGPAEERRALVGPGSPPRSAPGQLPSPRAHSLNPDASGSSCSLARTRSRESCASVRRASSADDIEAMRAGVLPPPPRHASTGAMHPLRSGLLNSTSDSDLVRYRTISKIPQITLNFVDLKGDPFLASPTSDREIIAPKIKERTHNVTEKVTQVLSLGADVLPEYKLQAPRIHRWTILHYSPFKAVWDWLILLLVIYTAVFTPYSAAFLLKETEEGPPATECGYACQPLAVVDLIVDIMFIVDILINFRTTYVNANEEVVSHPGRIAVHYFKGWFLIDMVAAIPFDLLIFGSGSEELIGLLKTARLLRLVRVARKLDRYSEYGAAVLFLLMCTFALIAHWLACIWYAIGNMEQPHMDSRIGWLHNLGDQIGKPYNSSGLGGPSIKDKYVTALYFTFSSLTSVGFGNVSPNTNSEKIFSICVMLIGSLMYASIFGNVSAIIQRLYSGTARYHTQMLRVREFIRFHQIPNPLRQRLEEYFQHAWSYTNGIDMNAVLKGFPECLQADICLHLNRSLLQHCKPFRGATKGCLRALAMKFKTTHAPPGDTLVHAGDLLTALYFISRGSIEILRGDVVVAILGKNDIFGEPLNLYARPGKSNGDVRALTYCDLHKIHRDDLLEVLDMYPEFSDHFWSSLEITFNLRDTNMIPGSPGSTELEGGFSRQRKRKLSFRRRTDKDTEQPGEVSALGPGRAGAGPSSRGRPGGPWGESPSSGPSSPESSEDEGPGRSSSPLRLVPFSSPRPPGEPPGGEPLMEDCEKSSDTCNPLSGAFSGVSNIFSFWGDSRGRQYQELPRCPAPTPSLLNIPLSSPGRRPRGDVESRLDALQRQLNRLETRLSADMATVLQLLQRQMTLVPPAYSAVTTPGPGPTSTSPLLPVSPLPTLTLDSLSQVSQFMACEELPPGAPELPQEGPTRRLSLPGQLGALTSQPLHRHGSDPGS

For the molecule `CC1=NC(C(C)C)CO1` (configuration not stated), the Activity in [1] worked out at 40%.

The molecule `Nc1nccc2cc(CNCCOc3ccccc3)ccc12` gave a concentration for half-maximal inhibition (IC50) in data set [2] of 589 nM.

On to `c1ccc2[nH]ncc2c1`, for which the Activity in [1] is greater than 80%.

Regarding `O=C(Nc1nccs1)c1ccncc1`, in [1], the Activity is greater than 80%.

With `Nc1nccc2cc(OC3CCN(Cc4ccccc4)CC3)ccc12`, the IC50 in [2] was 4270 nM.

As to `c1ccc(-n2cccc2)nc1`, the Activity in [1] came out at 30%.

As for `Nc1nc2c(c(=O)[nH]1)CC=N2`, in data set [1], the Activity came to 68%.

`c1ccn2ccnc2c1`: in data set [1], the Activity was 38%.

In turn, `Cc1ccc(CCNCc2ccc3c(N)nccc3c2)cc1` had an IC50 in data set [2] of 813 nM.

In turn, `Nc1nccc2cc(CNCc3cccc(Oc4ccccc4)c3)ccc12` gave a half-inhibitory concentration (IC50) in [2] of 575 nM.

For `Nc1nccc2cc(OC3CCNCC3)ccc12`, in data set [2], half-maximal inhibition (IC50) was put at 3630 nM.

In data set [2], `Nc1nccc2cc(CNCCc3cccc(C(F)(F)F)c3)ccc12` had an IC50 of 1700 nM.

`Nc1nccc2cc(CNCCc3ccncc3)ccc12`: the concentration for half-maximal inhibition (IC50) in [2] is 1860 nM.

For the molecule `NC(=O)c1ccccc1O`, the Activity in data set [1] was 34%.

In turn, `CS(=O)(=O)N1CCC[C@H](Oc2ccc3c(N)nccc3c2)C1` showed an IC50 in data set [2] greater than 100000 nM.

As for `CN(CCc1ccccc1)Cc1ccc2c(N)nccc2c1`, inhibition in data set [2] was half-maximal at 427 nM (IC50).

Regarding `O=S(=O)(c1cccc2cnccc12)N1CCCNCC1` [FASUDIL], the Vd in [3] stood at 1.8 L/kg. This molecule gave a bioavailability in data set [4] of 3.6%.

Turning to `O=S(=O)(c1cccc2c(O)nccc12)N1CCCNCC1` [HYDROXYFASUDIL], in data set [3], the Vd stood at 2.4 L/kg. In addition, the clearance in [5] came out at 34 mL/min/kg. The inhibition constant Ki in data set [6] was 7940 nM. In [4], this molecule registered a bioavailability of 57%. In addition, the half-life in data set [7] is 45 min.

`Nc1nccc2cc(CNCc3ccc4ccccc4c3)ccc12` showed a half-maximal inhibitory concentration (IC50) in data set [2] of 3470 nM.

In the case of `NCc1ccc2c(N)nccc2c1`, the pKa in [8] was 7.6. For the same molecule, half-maximal inhibition in [2] (IC50) was put at 7760 nM.

For `CC(=O)c1ccccc1`, the Activity in [1] is 60%.

In the case of `Nc1ccnc2ccncc12`, the Activity in data set [1] is greater than 80%.

As for `COc1ccc(CCNCc2ccc3c(N)nccc3c2)cc1`, the IC50 in [2] was 1000 nM.

As for `c1cc(-c2cnco2)ccn1`, the Activity in data set [1] is greater than 80%.

`Nc1nccc2cc(CNCCNc3ccccc3)ccc12` gave an IC50 in data set [2] of 1480 nM.

`Nc1nccc2cc(CNCc3ccccc3)ccc12` had an IC50 in [2] of 6760 nM.

For the molecule `Nc1nccc2cc(O[C@H]3CCCN(Cc4ccccc4)C3)ccc12`, in [9], the Papp A→B was 2.2 ×10⁻⁶ cm/s. This molecule also yielded a bioavailability in [10] of 7%. Moreover, the half-life is greater than 120 min in data set [11]; 27 min in [13]; 492 min in data set [14]; 12 min in data set [15]; 22 min in data set [17]. In [12], this molecule gave a clearance of 295 mL/min/kg. Besides, the Vd in data set [16] came out at 8.2 L/kg. Further, the Papp B→A in [18] is 1.5 ×10⁻⁶ cm/s.

As for `Nc1nccc2cc(CNCCc3ccc(Cl)c(Cl)c3)ccc12`, half-maximal inhibition in [2] (IC50) required 776 nM.

On to `Cn1nc(C(C)(C)C)cc1N`, for which, in data set [1], the Activity came out at 20%.

On to `CC1(C)C(=O)Nc2ccccc21`, for which, in [1], the Activity was 25%.

As for `Nc1ncnc2ccccc12`, the Activity in data set [1] was greater than 80%.

In the case of `Nc1nccc2cc(CNCCc3ccccc3)ccc12`, the 50% inhibitory concentration (IC50) in data set [19] and in [2] was 1290 nM each time. Besides, the Ki is 3160 nM in [6] and 63.1 nM in data set [20].

Turning to `c1ccc2[nH]cnc2c1`, in data set [1], the Activity stood at 64%.

As for `C[C@@H](N)[C@H]1CC[C@H](C(=O)Nc2ccncc2)CC1` [Y-27632], in data set [3], the Vd was 3.8 L/kg. Moreover, the clearance in data set [5] stood at 50.9 mL/min/kg. The bioavailability in data set [4] came out at 52%. The same molecule gave a half-life in [7] of 100 min.

As to `c1cc(N2CCOCC2)ccn1`, the Activity in [1] was greater than 80%.

In the case of `c1ccc2cnccc2c1`, in data set [1], the Activity amounted to 70%.
